Data set [1] concerns Ang I to Ang-(1–7) converting peptidase activity in isolated nuclei from NRK-52E cells. Put plainly: Peptide metabolism: generation of Ang-. In kind it is biochemical, rat. The conditions noted are these: 37°C, 125I-Ang I 0.5 nM; SCH39370 10 μM, ZPP 50 μM; HPLC with γ detector.
Data set [2] has as its system (pro)renin receptor. The conditions noted are these: cited from earlier work.
Data set [3] addresses T1, renin (NRK-52E cell nuclei) (Rattus norvegicus, UniProt P08424).
T1 sequence (P08424 65-402): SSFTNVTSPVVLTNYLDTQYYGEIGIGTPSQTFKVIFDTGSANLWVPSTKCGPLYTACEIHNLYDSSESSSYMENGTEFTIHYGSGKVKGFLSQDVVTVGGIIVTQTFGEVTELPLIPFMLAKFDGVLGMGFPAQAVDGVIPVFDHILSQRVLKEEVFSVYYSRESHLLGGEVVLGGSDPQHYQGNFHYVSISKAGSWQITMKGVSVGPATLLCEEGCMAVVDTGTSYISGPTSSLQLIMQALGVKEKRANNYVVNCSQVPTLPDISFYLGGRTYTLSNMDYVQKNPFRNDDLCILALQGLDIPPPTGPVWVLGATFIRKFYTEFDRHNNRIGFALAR
Put plainly: Renin activity assay in nuclear lysate of NRK-52E cells. In kind it is biochemical. The conditions noted are these: basal (control) nuclear lysate, aliskiren 1 μM, 37°C, 90 min; n = 3 passages.

For data set [4] the following is noted: dose higher than the maximal recommended dose for heart failure and hypertension; without a further decline in blood pressure; cited from earlier work.
The conditions of data set [5]: pH 7.4.

Where a SMILES comes first, the peptide text is derived from it. Where no end group is shown, it is not given here. The star is where a group is joined. Cbz = O=C(OCc1ccccc1)*

Take `O=C(O)C(O)CNC(=O)[C@H](Cc1ccccc1)NC(CCc1ccccc1)C(=O)O` (stereo partly drawn) [SCH39370]: the “Effect on generation of Ang-(1–7) in the nuclear extract” value in data set [1] is “did not block”.

For `O=C[C@@H]1CCCN1C(=O)[C@@H]1CCCN1C(=O)OCc1ccccc1` [ZPP, Z-prolyl prolinal] (Cbz-Pro-Pro-aldehyde), the “Effect on generation of Ang-(1–7) in the nuclear extract” value in data set [1] is “did not block”.

In the case of `COCCCOc1cc(C[C@@H](C[C@H](N)[C@@H](O)C[C@H](C(=O)NCC(C)(C)C(N)=O)C(C)C)C(C)C)ccc1OC` [aliskiren], in data set [2], the “Effect on binding of (pro)renin to the receptor” value is “do not block”. Further, in data set [3], the “Reduction of nuclear renin activity” value was determined as 83%.

On to `CCOc1nc2cccc(C(=O)O)c2n1Cc1ccc(-c2ccccc2-c2nnn[nH]2)cc1` [candesartan], for which, in data set [4], the “Effect on persistent proteinuria” value was “significantly reduced”.

For the molecule DRVYIHPFHL [Ang I], in data set [5], the “Half-life in nuclear cell extracts” value is 1.22 h.

The values above are taken from publication PMC4276551 (Journal of the renin-angiotensin-aldosterone system : JRAAS, 2014).
